Reference: ChEMBL document CHEMBL1155886, “Discovery of piperidine-aryl urea-based stearoyl-CoA desaturase 1 inhibitors” (Bioorg Med Chem Lett, 2008)
pIC50: −log10 of the molar value. Active and inactive are the calls of the source. The rule behind the calls is not given here.

Columns and labels:
Acyl-CoA desaturase 1 = target: T1, Acyl-CoA desaturase 1 (Mus musculus, UniProt P13516); test: Inhibition of mouse SCD1
T1 sequence (P13516 whole entry): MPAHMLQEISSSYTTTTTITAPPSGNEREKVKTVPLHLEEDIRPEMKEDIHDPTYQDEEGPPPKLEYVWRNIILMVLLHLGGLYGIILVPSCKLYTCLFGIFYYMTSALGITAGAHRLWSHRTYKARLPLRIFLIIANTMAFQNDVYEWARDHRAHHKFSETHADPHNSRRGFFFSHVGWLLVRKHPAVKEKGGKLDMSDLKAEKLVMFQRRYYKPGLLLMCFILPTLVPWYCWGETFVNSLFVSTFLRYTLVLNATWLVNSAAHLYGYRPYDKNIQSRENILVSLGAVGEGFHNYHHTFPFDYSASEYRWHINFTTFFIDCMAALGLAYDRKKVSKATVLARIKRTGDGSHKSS

[1] = Inhibition of human recombinant SCD1 expressed in baculovirus/insect cell system
[2] = Oral bioavailability in mouse; format: ADME, organism-based; conditions: in vivo
[3] = Clearance in mouse plasma; format: ADME, organism-based
[4] = target: Cytochrome b5 (Homo sapiens) (UniProt P00167); test: Inhibition of cytochrome b5 at >10 uM
Cytochrome b5 (Homo sapiens), sequence (P00167 whole entry): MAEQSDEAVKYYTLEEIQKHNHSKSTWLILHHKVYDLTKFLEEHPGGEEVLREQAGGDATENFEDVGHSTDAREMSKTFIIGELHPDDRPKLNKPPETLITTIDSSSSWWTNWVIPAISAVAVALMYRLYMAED

Mus musculus [5] = test: Reduction in desaturation index in plasma of ob/ob mouse assessed as ratio of C18:0/C18:1n9 at 10 mg/kg bid; format: functional, organism-based; set-up: dose 10 mg/kg
Mus musculus [6] = test: Reduction in desaturation index in liver of ob/ob mouse assessed as ratio of C18:0/C18:1n9 at 10 mg/kg bid; format: functional, organism-based; set-up: dose 10 mg/kg
Mus musculus [7] = organism: Mus musculus; test: Reduction in triglyceride desaturation index in ob/ob mouse; format: functional, organism-based
[8] = Inhibition of cytochrome b5 reductase at >10 uM
Mus musculus [9] = test: Reduction in desaturation index in plasma of ob/ob mouse assessed as ratio of C16:0/C16:1n7 at 10 mg/kg bid; format: functional, organism-based; set-up: dose 10 mg/kg
Mus musculus [10] = test: Reduction in desaturation index in liver of ob/ob mouse assessed as ratio of C16:0/C16:1n7 at 10 mg/kg bid; format: functional, organism-based; set-up: dose 10 mg/kg
[11] = Volume of distribution at steady state in mouse; format: ADME, organism-based; conditions: in vivo, read-out: Vdss
Mus musculus [12] = test: Reduction in desaturation index in plasma of ob/ob mouse assessed as ratio of C16:0/C16:1n7 at 30 mg/kg bid; format: functional, organism-based; set-up: dose 30 mg/kg
Mus musculus [13] = test: Reduction in desaturation index in liver of ob/ob mouse assessed as ratio of C18:0/C18:1n9 at 30 mg/kg bid; format: functional, organism-based; set-up: dose 30 mg/kg
Mus musculus [14] = test: Reduction in desaturation index in plasma of ob/ob mouse assessed as ratio of C18:0/C18:1n9 at 30 mg/kg bid; format: functional, organism-based; set-up: dose 30 mg/kg
Mus musculus [15] = test: Reduction in desaturation index in liver of ob/ob mouse assessed as ratio of C16:0/C16:1n7 at 30 mg/kg bid; format: functional, organism-based; set-up: dose 30 mg/kg

Row | SMILES | pIC50 (Acyl-CoA desaturase 1) | pIC50 [1] | further results
1 | CNC(=O)c1cccc(NC(=O)N2CCC(Oc3cccc(Cl)c3)CC2)c1 | 7.70 | 6.57 | 
2 | CNC(=O)c1cccc(NC(=O)N2CCN(C(=O)c3ccccc3C(F)(F)F)CC2)c1 | 6.15 |  | 
3 | CNC(=O)c1cccc(NC(=O)N2CCC(Oc3ccccc3OC)CC2)c1 | 7.09 | 5.72 | 
4 | CNC(=O)c1cccc(NC(=O)N2CCC(Oc3cc(F)ccc3Cl)CC2)c1 | > 8.40 | 7.74 | 
5 | CNC(=O)c1cccc(NC(=O)N2CCC(Oc3ccccc3Cl)CC2)c1 | > 8.40 | 7.43 | bioavailability [2]: 92%; clearance [3]: 6.67 mL/min/kg; Activity [4]: inactive; Activity (Mus musculus [5]): Active; Activity (Mus musculus [6]): Active; Activity (Mus musculus [7]): Dose-dependent effect; Activity [8]: inactive; Activity (Mus musculus [9]): Active; Activity (Mus musculus [10]): Active; Vd [11]: 0.4 L/kg
6 | CNC(=O)c1cccc(NC(=O)N2CCC(Oc3ccc(F)cc3Cl)CC2)c1 | 8.22 | 7.24 | 
7 | NC(=O)c1cccc(NC(=O)N2CCC(Oc3ccccc3Cl)CC2)c1 | 8.00 | 7.23 | 
8 | CNC(=O)c1ccc(NC(=O)N2CCN(C(=O)c3ccccc3C(F)(F)F)CC2)cc1 | < 5.00 |  | 
9 | O=C(Nc1cccc(-c2ncc[nH]2)c1)N1CCC(Oc2ccccc2Cl)CC1 | 8.00 | 6.44 | 
10 | CNC(=O)c1cccc(NC(=O)N2CCC(Oc3ccccc3)CC2)c1 | 6.43 | 5.40 | 
11 | CCNC(=O)c1cccc(NC(=O)N2CCC(Oc3ccccc3Cl)CC2)c1 | 8.10 | 6.82 | 

Continued, in another order:

Row | pIC50 (Acyl-CoA desaturase 1) | SMILES | pIC50 [1] | further results
12 | 6.48 | CNC(=O)c1cccc(NC(=O)N2CCC(Oc3c(F)cccc3Cl)CC2)c1 | 5.01 | 
13 | < 5.00 | CC(C)(C)NC(=O)c1cccc(NC(=O)N2CCC(Oc3ccccc3Cl)CC2)c1 | < 5.00 | 
14 | 7.01 | CNC(=O)c1cccc(NC(=O)N2CCC(Oc3ccccc3F)CC2)c1 | 6.17 | Activity (Mus musculus [12]): Active; Activity (Mus musculus [13]): Active; Activity (Mus musculus [14]): Active; Activity (Mus musculus [15]): Active
15 | 7.77 | CNC(=O)c1cccc(NC(=O)N2CCC(Oc3ccccc3C)CC2)c1 | 6.92 | 
16 | > 8.40 | CNC(=O)c1cccc(NC(=O)N2CCC(Oc3ccccc3Br)CC2)c1 | 7.52 | 
17 | 6.09 | CC(C)NC(=O)c1cccc(NC(=O)N2CCC(Oc3ccccc3Cl)CC2)c1 | 5.15 | 
18 | 8.10 | Cc1noc(-c2cccc(NC(=O)N3CCC(Oc4ccccc4Cl)CC3)c2)n1 | 6.96 | 
19 | 6.23 | O=C(Nc1ccccc1)N1CCC(Oc2ccccc2Cl)CC1 | 5.12 | 
